Test [1] can be described thus: Metal chelation activity assessed as 1:1 compound to Cu2+L complex formation in DMF:H2O (7:3) solution by EPR spectrscopy.
The test system of test [2] is SK-N-MC. Put plainly: Induction of autophagy in human SK-N-MC cells assessed as decrease in p62 level at 25 uM after 24 hrs by Western blot analysis. It counts as functional, cell-based. A general note: Immunoblotting shows a protein as a band on a membrane.
The nature of test [3]: Metal chelation activity assessed as 1:2 Fe3+:L complex formation in DMF:H2O (7:3) solution by EPR spectrscopy.
The nature of test [4]: Metal chelation activity assessed as 1:1 compound to Cu2+L2 complex formation in DMF:H2O (7:3) solution by EPR spectrscopy.
Test [5] has as its system SK-N-MC. Put plainly: Binding affinity to 59Fe2+ in human SK-N-MC cells labeled with 59Fe2-transferrin assessed as Fe release at 25 uM after 3 hrs by gamma scintillation counting method relative to DFO. It counts as cell-based.
The test system of test [6] is SK-N-MC. The test can be described thus: Induction of autophagy in human SK-N-MC cells assessed as increase in LC3 accumulation at 25 uM after 24 hrs in presence of autophagy inhibitor Baf1 by Western blot analysis. It counts as functional, cell-based.
For test [7], the system named is SK-N-MC. The test can be described thus: cells. The settings on record: Homo sapiens, read-out: Activity.
Description: (§1) Neuroprotective activity against H2O2-induced cell death in human SK-N-MC cells assessed as cell viability at 10 uM preincubated for 2 hrs followed by H2O2 addition and measured after 24 hrs by MTT assay
A further test deals with Acetylcholinesterase (Electrophorus electricus, UniProt O42275). The test can be described thus: Inhibition of electric eel AChE using acetylthiocholine iodide as substrate preincubated for 15 mins followed by substrate addition measured for 5 mins by UV spectrophotometric analysis.
Test [8] is described as follows: Metal chelation activity assessed as 1:1 compound to Cu2+L complex formation in DMF:H2O (7:3) solution by cyclic voltametry.
Test [9] can be described thus: Metal chelation activity assessed as 1:2 Fe3+:L complex formation in DMF:H2O (7:3) solution by cyclic voltametry.
For test [10], the system named is SK-N-MC. The test can be described thus: cells. It counts as ADME, cell-based. As to conditions: Homo sapiens, 72 h.
Description: Antiproliferative activity against human SK-N-MC cells after 72 hrs by MTT assay
In test [11] the test system is SK-N-MC. Put plainly: Induction of autophagy in human SK-N-MC cells assessed as increase in LC3 accumulation at 25 uM after 24 hrs in absence of autophagy inhibitor Baf1 by Western blot analysis. It counts as functional, cell-based.
Test [12] concerns SK-N-MC. As to conditions: Homo sapiens, 10 uM.
Description: as §1
A short description of test [13]: Metal chelation activity assessed as 1:2 Fe2+:L complex formation in DMF:H2O (7:3) solution by EPR spectrscopy.

Activity calls are given as the source filed them. The calls are words filed in the database; no cut-off is given here.

Chain of Acetylcholinesterase (O42275 whole entry): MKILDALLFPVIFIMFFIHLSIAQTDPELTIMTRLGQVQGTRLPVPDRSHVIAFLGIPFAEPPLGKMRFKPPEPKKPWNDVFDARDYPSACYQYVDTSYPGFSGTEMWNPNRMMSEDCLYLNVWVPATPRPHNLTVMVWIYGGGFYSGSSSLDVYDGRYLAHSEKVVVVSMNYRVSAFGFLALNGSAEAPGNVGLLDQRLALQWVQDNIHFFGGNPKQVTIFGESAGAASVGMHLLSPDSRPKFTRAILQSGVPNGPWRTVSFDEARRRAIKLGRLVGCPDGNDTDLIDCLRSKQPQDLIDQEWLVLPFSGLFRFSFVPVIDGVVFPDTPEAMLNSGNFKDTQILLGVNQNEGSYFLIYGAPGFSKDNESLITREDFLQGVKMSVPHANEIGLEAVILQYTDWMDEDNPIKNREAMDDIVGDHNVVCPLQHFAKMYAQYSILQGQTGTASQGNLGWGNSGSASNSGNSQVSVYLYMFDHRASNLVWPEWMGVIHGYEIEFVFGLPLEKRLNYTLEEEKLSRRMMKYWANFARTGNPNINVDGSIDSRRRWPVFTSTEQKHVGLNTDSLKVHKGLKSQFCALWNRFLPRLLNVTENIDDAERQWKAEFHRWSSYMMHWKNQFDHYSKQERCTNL

On to `Oc1ccccc1/C=N/NC(=S)NC1CCN(Cc2ccccc2)CC1`, for which the outcome (in test [1]; in the test with SK-N-MC [2]; in test [3]; in test [8]; in test [9]) was Active. In addition, the result (in test [4]; with SK-N-MC [6]) was inactive. Also, the Activity with SK-N-MC [5] was 28%. The viability at 10 µM in the test on SK-N-MC [7] was in the range of 66 to 87%. The concentration for half-maximal inhibition (IC50) (in general, the concentration that gives 50% inhibition) against Acetylcholinesterase is 1.02 to 22.6 µM; in the test on SK-N-MC [10], 34.4 µM.
As to `Oc1cccc(/C=N/NC(=S)NC2CCN(Cc3ccccc3)CC2)c1O`, the outcome (in test [1]; with SK-N-MC [11]) was Active. For the same molecule, the outcome in the test on SK-N-MC [2] and with SK-N-MC [6] was inactive. Further, the Activity in the test on SK-N-MC [5] came to 29%. In addition, the viability at 10 µM in the test on SK-N-MC [7] fell in the range of 66 to 87%. Besides, the 50% inhibitory concentration (IC50) against Acetylcholinesterase is 1.02 µM; in the test on SK-N-MC [10], 16.9 µM.
Consider `Oc1cccc2ccc(/C=N/NC(=S)NC3CCN(Cc4ccccc4)CC3)nc12`, for which the result (in [1]; in the test with SK-N-MC [6]; in test [8]; in test [9]; in the test with SK-N-MC [11]) was Active. The outcome in the test with SK-N-MC [2] was inactive. The Activity in the test on SK-N-MC [5] is 17%. For the same molecule, in the test with SK-N-MC [7], the viability at 10 µM was in the range of 66 to 87%. Besides, the values for the IC50 at Acetylcholinesterase and with SK-N-MC [10] were 1.02 to 22.6 µM and 36.1 µM, respectively.
`CN(C)C(=S)NN=C(c1ccccn1)c1ccccn1`: the result with SK-N-MC [2] and with SK-N-MC [6] was Active. It took 0.013 µM to reach half-maximal inhibition with SK-N-MC [10] (IC50).
`S=C(N/N=C/c1ccc2ccccc2n1)NC1CCN(Cc2ccccc2)CC1`: the outcome in test [1], in [3], in test [8] and in test [9] was Active. In addition, the outcome with SK-N-MC [2] and in the test with SK-N-MC [6] was inactive. In addition, the viability at 10 µM with SK-N-MC [7] lay within 66 to 87%. The IC50 against Acetylcholinesterase is 1.02 to 22.6 µM; in the test with SK-N-MC [10], 17.7 µM.
Take `Oc1ccc2ccccc2c1/C=N/NC(=S)NC1CCN(Cc2ccccc2)CC1`: the outcome (in test [1]; in the test with SK-N-MC [2]; in test [3]; in test [8]; in test [9]; in the test with SK-N-MC [11]) was Active. For the same molecule, the result (in [4]; in the test on SK-N-MC [6]; with SK-N-MC [12]) was inactive. Moreover, the Activity in the test with SK-N-MC [5] was found to be 16%. Further, the figures for the IC50 against Acetylcholinesterase and in the test with SK-N-MC [10] were 1.23 µM and 8.86 µM, respectively.
Regarding `CC(=O)N(O)CCCCCNC(=O)CCC(=O)N(O)CCCCCNC(=O)CCC(=O)N(O)CCCCCN` [DEFEROXAMINE], the viability at 10 µM with SK-N-MC [7] is 89%. In addition, the 50% inhibitory concentration (IC50) in the test with SK-N-MC [10] was 16.8 µM.
In the case of `COc1cc2c(cc1OC)C(=O)C(CC1CCN(Cc3ccccc3)CC1)C2` (stereo unspecified) [DONEPEZIL], the viability at 10 µM in the test on SK-N-MC [7] is 74%. This molecule came in with a 50% inhibitory concentration (IC50) with SK-N-MC [10] of more than 100 µM.
Consider `S=C(N/N=C/c1ccccn1)NC1CCN(Cc2ccccc2)CC1`, for which the outcome (in test [1]; in test [3]; in the test on SK-N-MC [6]; in test [8]; in [9]) was Active. In the test with SK-N-MC [2], the outcome was inactive. Further, in the test with SK-N-MC [5], the Activity worked out at 18%. Also, the viability at 10 µM in the test with SK-N-MC [7] is 66 to 87%. Besides, the 50% inhibitory concentration (IC50) was 1.02 to 22.6 µM against Acetylcholinesterase and 4.23 µM in the test on SK-N-MC [10].
For `Cc1ncc(CO)c(/C=N/NC(=S)NC2CCN(Cc3ccccc3)CC2)c1O`, the result (in [1]; in [3]; in the test on SK-N-MC [6]; in test [8]; in [9]) was Active. The outcome (with SK-N-MC [2]; in [4]) was inactive. In addition, the Activity in the test with SK-N-MC [5] amounted to 31%. Also, in the test with SK-N-MC [7], the viability at 10 µM is 66 to 87%. The values for the 50% inhibitory concentration (IC50) on Acetylcholinesterase and with SK-N-MC [10] were 4.93 µM and more than 100 µM, respectively.
`Oc1ccc(/C=N/NC(=S)NC2CCN(Cc3ccccc3)CC2)c(O)c1O`: the outcome (in [1]; with SK-N-MC [6]; in test [13]) was Active. In the test with SK-N-MC [2], the result was inactive. Also, the Activity in the test on SK-N-MC [5] came to 14%. Also, the viability at 10 µM with SK-N-MC [7] was in the range of 66 to 87%. In addition, the IC50 against Acetylcholinesterase is 1.02 to 22.6 µM; with SK-N-MC [10], 79.1 µM.
